Test results from PMC11868595, “Safety, pharmacokinetics and efficacy of HA121-28 in patients with advanced solid tumors and RET fusion-positive non-small-cell lung cancer: a multicenter, open-label, single-arm phase 1/2 trial” (Signal Transduction and Targeted Therapy, 2025).

Test system: patients with advanced solid tumors
Test: Phase 1 trial: adverse events (CTCAE), DLT and MTD
Assay type: in vivo, human
Details: Phase 1, 800 mg (N=3)
Method: The phase 1 trial was a two-part, multicenter, open-label, nonrandomized study to evaluate the safety and preliminary efficacy of HA121-28.
Safety, tolerability, and PK of HA121-28 was assessed in dose-escalation part. The single-patient accelerated titration was carried out at 25 mg and 50 mg; then, the dose escalation proceeded according to a “3 + 3” design in dose range of 100 to 800 mg. Escalation to a higher dose level was considered by the satisfactory review of safety results from the previous lower dose during the first cycle.
The dose-expansion part aims to further access the safety and efficacy of HA121-28 at the selected doses based on data from the dose-escalation part. The RP2D was determined by investigators in view of a thorough review of safety, PK, and efficacy results.
In phase 1 trial, during the dose-escalation part, patients first administered HA121-28 in a single ascending dose under the fasted state, then followed up for seven days. Then, patients received ascending doses of HA121-28 (q.d.) on a 21-day on and 7-day off treatment scheme for a 28-day cycle. For patients deemed beneficial from the treatment by investigators, treatment could remain until disease progression, or they discontinued from the study. In the dose-expansion part of phase 1, as well as phase 2, patients received HA121-28 (q.d.) at the selected doses on a 21-day on and 7-day off treatment scheme until disease progression, or they discontinued from the study.
Treatment-emergent adverse events (TEAEs) were documented during the entire study period. The predefined adverse event of special interest (AESI) was ≥ grade 3 prolonged QT interval. Tumor imaging was performed using contrast-enhanced computed tomography or magnetic resonance imaging at screening, Day 28 of the first cycle, then approximately every eight weeks till the end of the study for phase 1; in phase 2, imaging was scheduled at screening, and every eight weeks during the first 40 weeks, followed by every 12 weeks for the rest of the study period. RECIST 1.1 was used by the independent review committee or investigators for assessment of tumor response. After the original assessment, a repeated assessment was required around four weeks later to confirm a complete or partial response.
The primary endpoints of phase 1 were to investigate the MTD, dose-limiting toxicities, and the incidence and severity of TEAEs. Each TEAE was graded according to the Common Terminology Criteria for Adverse Events (CTCAE, version 5.0) and coded by Medical Dictionary for Regulatory Activities (MedDRA, version 21.0). The secondary endpoints included calculating PK parameters, assessing the ORR and DCR at the recommended dose by investigators as per RECIST 1.1. The exploratory endpoint was PFS.
If grade 2 or higher toxicity related to the study drug occurs in Groups 1 and 2 (as determined by the investigator), dose escalation will proceed using a 3+3 design starting from that dose level. If no DLT is observed at the 800 mg/d dose level after dose escalation, a meeting of investigators will be convened to decide whether to proceed with further dose escalation based on the available PK data, safety, and tolerability information.
5. Definition of DLT and MTD
The following events related to the study drug (including those that are definitely related, highly likely to be related, and possibly related):
(1) Grade 4 hematologic toxicity or grade 3 neutropenia accompanied by a fever of 38.5℃ or higher, or grade 3 thrombocytopenia accompanied by severe bleeding.
(2) Patients who discontinued the medication for more than 7 days due to unresolved toxicity reactions or who discontinued the medication more than twice due to toxicity […]
(3) In the context of supportive treatment, diarrhea of grade 2 lasting more than 7 days, or grade 3 diarrhea lasting more than 3 days.

How did the “Serious TEAE: Headache” value turn out when `COc1cc2c(Nc3ccc(Br)cc3F)ncnc2cc1OCCCCN(C)C.Cl.Cl` [HA121-28, N-(4-bromo-2-fluorophenyl)-7-(4-(dimethylamino)butoxy)-6-methoxy quinazolin-4-amine dihydrochloride] was run?
The value was 0 No. (%).

And the “Serious TEAE: Hemoptysis” value?
The value was 0 No. (%).

And the “Serious TEAE: Hydronephrosis” value?
Its value is 0 No. (%).

And the “Serious TEAE: Hypertension” value?
The value was 0 No. (%).

What about the “Serious TEAE: Hypoalbuminemia” value of the same compound?
The value was 0 No. (%).

And the “Serious TEAE: Intestinal obstruction” value?
The value was 0 No. (%).

What about the “Serious TEAE: Intra-abdominal fluid collection” value of the same compound?
The value was 0 No. (%).

And the “Serious TEAE: Intracranial tumor hemorrhage” value?
Its value is 0 No. (%).

And the “Serious TEAE: Liver injury” value?
The value was 0 No. (%).

And the “Serious TEAE: Lung adenocarcinoma” value?
The value was 0 No. (%).

And the “Serious TEAE: Malignant neoplasm progression” value?
The value was 0 No. (%).

And the “Serious TEAE: Multiple organ dysfunction syndrome” value?
Its value is 0 No. (%).

And the “Serious TEAE: Nausea” value?
Its value is 0 No. (%).

And the “Serious TEAE: Nephrolithiasis” value?
The value was 0 No. (%).

What about the “Serious TEAE: Platelet counts decreased” value of the same compound?
Its value is 0 No. (%).

What about the “Serious TEAE: Pleural effusion” value of the same compound?
Its value is 0 No. (%).

What about the “Serious TEAE: Pneumonia” value of the same compound?
The value was 0 No. (%).

What about the “Serious TEAE: Pneumonitis” value of the same compound?
The value was 0 No. (%).

What about the “Serious TEAE: Prolonged QT interval” value of the same compound?
The value was 0 No. (%).

What about the “Serious TEAE: Pulmonary embolism” value of the same compound?
Its value is 0 No. (%).

And the “Serious TEAE: Pyrexia” value?
The value was 0 No. (%).

What about the “Serious TEAE: Rash” value of the same compound?
The value was 0 No. (%).

What about the “Serious TEAE: Rectal hemorrhage” value of the same compound?
The value was 0 No. (%).

What about the “Serious TEAE: Respiratory failure” value of the same compound?
The value was 0 No. (%).

And the “Serious TEAE: Seizure” value?
Its value is 0 No. (%).

And the “Serious TEAE: Septic shock” value?
Its value is 0 No. (%).

And the “Serious TEAE: Sudden cardiac arrest” value?
Its value is 0 No. (%).

And the “Serious TEAE: Sudden death” value?
Its value is 0 No. (%).

What about the “Serious TEAE: Upper respiratory tract infection” value of the same compound?
The value was 0 No. (%).

And the “Serious TEAE: Ventricular tachycardia” value?
The value was 0 No. (%).

And the “Serious TEAE: Vomiting” value?
Its value is 0 No. (%).

What about the “Serious TEAE: Weight loss” value of the same compound?
The value was 1 (33.3) No. (%).

What about the “Serious TRAE: ALT increased” value of the same compound?
Its value is 0 No. (%).

What about the “Serious TRAE: AST increased” value of the same compound?
The value was 0 No. (%).

And the “Serious TRAE: Abdominal Pain” value?
The value was 0 No. (%).

What about the “Serious TRAE: Abdominal distension” value of the same compound?
The value was 0 No. (%).

And the “Serious TRAE: Acute cholecystitis” value?
Its value is 0 No. (%).

And the “Serious TRAE: Acute pancreatitis” value?
Its value is 0 No. (%).

And the “Serious TRAE: Anal abscess” value?
The value was 0 No. (%).

And the “Serious TRAE: Any” value?
The value was 1 (33.3) No. (%).

And the “Serious TRAE: Aortic intramural hematoma” value?
Its value is 0 No. (%).

What about the “Serious TRAE: Arrhythmia” value of the same compound?
The value was 0 No. (%).

And the “Serious TRAE: Blood bilirubin increased” value?
Its value is 0 No. (%).

What about the “Serious TRAE: Blood creatinine increased” value of the same compound?
Its value is 0 No. (%).

What about the “Serious TRAE: COVID-19” value of the same compound?
The value was 0 No. (%).

And the “Serious TRAE: Cardiac tamponade” value?
Its value is 0 No. (%).

What about the “Serious TRAE: Coronary artery atherosclerosis” value of the same compound?
The value was 0 No. (%).

And the “Serious TRAE: Death” value?
Its value is 0 No. (%).

What about the “Serious TRAE: Diarrhea” value of the same compound?
The value was 0 No. (%).

What about the “Serious TRAE: Drug eruption” value of the same compound?
Its value is 0 No. (%).

What about the “Serious TRAE: Dyspnea” value of the same compound?
The value was 0 No. (%).

What about the “Serious TRAE: Embolism” value of the same compound?
The value was 0 No. (%).

And the “Serious TRAE: Erythema multiforme” value?
The value was 0 No. (%).

And the “Serious TRAE: Headache” value?
The value was 0 No. (%).

And the “Serious TRAE: Hemoptysis” value?
Its value is 0 No. (%).

What about the “Serious TRAE: Hydronephrosis” value of the same compound?
The value was 0 No. (%).

And the “Serious TRAE: Hypertension” value?
The value was 0 No. (%).
